Test results: patent US20100305120A1, “COMPOUNDS FOR TREATING MUSCULAR DYSTROPHY” (BIOMARIN IGA LIMITED, priority 2008, published 2010)

System: Utrophin A promoter linked to a luciferase reporter gene
Experiment: Luciferase reporter assay (murine H2K cells), H2K/mdx/Utro A reporter cell line
Format: cell-based
Settings: 48 h, mdx mouse H2K Utrophin A reporter cells, read-out: Activity (luciferase level relative to control); for activity at 10 µM: test compound concentration 10 μM
Method in brief: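 Immortalized mdx mouse H2K myoblasts stably carrying ~5 kb utrophin A promoter–luciferase construct, kept at 33 °C, 10% CO2. Compound added 24 h after plating, typically at 10 μM final, for 48 h; luciferase measured by cell lysis and luminescence.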

| SMILES | activity at 10 µM | other results |
| --- | --- | --- |
| CS(=O)(=O)c1ccc(Cn2nc(C(=O)Nc3cnc4ccccc4c3)c3ccccc32)cc1 [Compound 103, 1-(4-(methylsulfonyl)benzyl)-N-(quinolin-3-yl)-1H-indazole-3-carboxamide] |  | activity at 3 µM (test compound concentration 3 μM): < 200% |
| Cc1ccc(NC(=O)c2nn(Cc3ccc(S(C)(=O)=O)cc3)c3ccccc23)cc1C [Compound 104, N-(3,4-dimethylphenyl)-1-(4-(methylsulfonyl)benzyl)-1H-indazole-3-carboxamide] | 301 to 400% |  |
| CS(=O)(=O)c1ccc(Cn2nc(C(=O)Nc3ccc4c(c3)OCCO4)c3ccccc32)cc1 [Compound 105, N-(2,3-dihydrobenzo[b][1,4]dioxin-6-yl)-1-(4-(methylsulfonyl)benzyl)-1H-indazole-3-carboxamide] | > 401% |  |
| O=C(Nc1ccc2c(c1)OCO2)c1nn(Cc2cccnc2)c2ccccc12 [Compound 106, N-(benzo[d][1,3]dioxol-5-yl)-1-(pyridin-3-ylmethyl)-1H-indazole-3-carboxamide] | 201 to 300% |  |
| CC(=O)Nc1ccc(NC(=O)c2nn(Cc3ccc(S(C)(=O)=O)cc3)c3ccccc23)cc1 [Compound 107, N-(4-acetamidophenyl)-1-(4-(methylsulfonyl)benzyl)-1H-indazole-3-carboxamide] | 201 to 300% |  |
| Cc1ccc(NC(=O)c2nn(Cc3ccc(S(C)(=O)=O)cc3)c3ccccc23)cc1 [Compound 108, 1-(4-(methylsulfonyl)benzyl)-N-p-tolyl-1H-indazole-3-carboxamide] | > 401% |  |
| CC(=O)Nc1ccc(NC(=O)c2nn(Cc3ccc(C(F)(F)F)cc3)c3ccccc23)cc1 [Compound 109, N-(4-acetamidophenyl)-1-(4-(trifluoromethyl)benzyl)-1H-indazole-3-carboxamide] | < 200% |  |
| CS(=O)(=O)c1ccc(Cn2nc(C(=O)Nc3ccc4nccnc4c3)c3ccccc32)cc1 [Compound 110, 1-(4-(methylsulfonyl)benzyl)-N-(quinoxalin-6-yl)-1H-indazole-3-carboxamide] | 301 to 400% |  |
| CS(=O)(=O)c1ccc(Cn2nc(C(=O)Nc3ccc(Cl)c(Cl)c3)c3ccccc32)cc1 [Compound 111, N-(3,4-dichlorophenyl)-1-(4-(methylsulfonyl)benzyl)-1H-indazole-3-carboxamide] | < 200% |  |
| CCCc1ccc(NC(=O)c2nn(Cc3ccc(S(C)(=O)=O)cc3)c3ccccc23)cc1 [Compound 112, 1-(4-(methylsulfonyl)benzyl)-N-(4-propylphenyl)-1H-indazole-3-carboxamide] | 201 to 300% |  |
| CS(=O)(=O)c1ccc(Cn2nc(C(=O)Nc3ccc4c(c3)CS(=O)(=O)C4)c3ccccc32)cc1 [Compound 113, N-(1,3-dihydrobenzo[c]thiophen-2,2-dioxy-5-yl)-1-(4-(methylsulfonyl)benzyl)-1H-indazole-3-carboxamide] | < 200% |  |
| O=C(Nc1ccc2c(c1)OCO2)c1nn(Cc2ccc(C(F)(F)F)cc2)c2ccccc12 [Compound 115, N-(benzo[d][1,3]dioxol-5-yl)-1-(4-(trifluoromethyl)benzyl)-1H-indazole-3-carboxamide] | < 200% |  |
| CS(=O)(=O)c1ccc(Cn2nc(C(=O)Nc3ccc4ccccc4c3)c3ccccc32)cc1 [Compound 116, 1-(4-(methylsulfonyl)benzyl)-N-(naphthalen-2-yl)-1H-indazole-3-carboxamide] | 201 to 300% |  |
| CN(C)C(=O)c1ccc(Cn2nc(C(=O)Nc3ccc4c(c3)OCO4)c3ccccc32)cc1 [Compound 117, N-(benzo[d][1,3]dioxol-5-yl)-1-(4-(dimethylcarbamoyl)benzyl)-1H-indazole-3-carboxamide] | 201 to 300% |  |
| CS(=O)(=O)c1ccc(Cn2nc(NC(=O)Nc3ccc(Cl)cc3)c3ccccc32)cc1 [Compound 118, 1-(4-chlorophenyl)-3-(1-(4-(methylsulfonyl)benzyl)-1H-indazol-3-yl)urea] |  | activity at 0.3 µM (test compound concentration 0.3 μM): < 200% |
| CC(C)c1ccc(Cn2nc(C(=O)Nc3ccc4c(c3)OCO4)c3ccccc32)cc1 [Compound 119, N-(benzo[d][1,3]dioxol-5-yl)-1-(4-isopropylbenzyl)-1H-indazole-3-carboxamide] | < 200% |  |
| CS(=O)(=O)c1ccc(Cn2nc(C(=O)Nc3ccc4occc4c3)c3ccccc32)cc1 [Compound 120, N-(benzofuran-5-yl)-1-(4-(methylsulfonyl)benzyl)-1H-indazole-3-carboxamide] | 301 to 400% |  |
| CS(=O)(=O)c1ccc(Cn2nc(C(=O)Nc3ccc4c(c3)CCCC4)c3ccccc32)cc1 [Compound 121, 1-(4-(methylsulfonyl)benzyl)-N-(5,6,7,8-tetrahydronaphthalen-2-yl)-1H-indazole-3-carboxamide] | 201 to 300% |  |
| CS(=O)(=O)c1ccc(Cn2nc(C(=O)Nc3ccc(C4CCCCC4)cc3)c3ccccc32)cc1 [Compound 122, N-(4-cyclohexylphenyl)-1-(4-(methylsulfonyl)benzyl)-1H-indazole-3-carboxamide] | 201 to 300% |  |
| O=C(Nc1ccc2c(c1)OCO2)c1nn(Cc2ccc3c(c2)OCO3)c2ccccc12 [Compound 123, N-(benzo[d][1,3]dioxol-5-yl)-1-(benzo[d][1,3]dioxol-5-ylmethyl)-1H-indazole-3-carboxamide] | 201 to 300% |  |
| CC(C)(C)c1ccc(C(=O)n2nc(C(=O)Nc3ccc4c(c3)OCO4)c3ccccc32)cc1 [Compound 124, N-(benzo[d][1,3]dioxol-5-yl)-1-(4-tert-butylbenzoyl)-1H-indazole-3-carboxamide] | 301 to 400% |  |
| Cc1cnc(NC(=O)c2nn(Cc3ccc(S(C)(=O)=O)cc3)c3ccccc23)s1 [Compound 125, 1-(4-(methylsulfonyl)benzyl)-N-(5-methylthiazol-2-yl)-1H-indazole-3-carboxamide] | < 200% |  |
| Cc1csc(NC(=O)c2nn(Cc3ccc(S(C)(=O)=O)cc3)c3ccccc23)n1 [Compound 126, 1-(4-(methylsulfonyl)benzyl)-N-(4-methylthiazol-2-yl)-1H-indazole-3-carboxamide] | < 200% |  |
| CS(=O)(=O)c1cccc(Cn2nc(C(=O)Nc3ccc4c(c3)OCO4)c3ccccc32)c1 [Compound 127, N-(benzo[d][1,3]dioxol-5-yl)-1-(3-(methylsulfonyl)benzyl)-1H-indazole-3-carboxamide] | < 200% |  |
| CN(C)S(=O)(=O)c1ccc(Cn2nc(C(=O)Nc3ccc4c(c3)OCO4)c3ccccc32)cc1 [Compound 128, N-(benzo[d][1,3]dioxol-5-yl)-1-(4-(N,N-dimethylsulfamoyl)benzyl)-1H-indazole-3-carboxamide] | 201 to 300% |  |
| O=C(Nc1ccc2c(c1)OCO2)c1nn(Cc2ccsc2)c2ccccc12 [Compound 129, N-(benzo[d][1,3]dioxol-5-yl)-1-(thiophen-3-ylmethyl)-1H-indazole-3-carboxamide] | < 200% |  |
| CS(=O)(=O)c1ccc(Cn2nc(C(=O)Nc3ccc4c(c3)CCC4)c3ccccc32)cc1 [Compound 130, N-(2,3-dihydro-1H-inden-5-yl)-1-(4-(methylsulfonyl)benzyl)-1H-indazole-3-carboxamide] | 201 to 300% |  |
| Cc1ccc(Cn2nc(C(=O)Nc3ccc4c(c3)OCO4)c3ccccc32)cc1 [Compound 131, N-(benzo[d][1,3]dioxol-5-yl)-1-(4-methylbenzyl)-1H-indazole-3-carboxamide] | < 200% |  |
